Source: PubChem BioAssay (NCI)
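1) Cells in 96-well plates. 2) Compound, 48 h, 5 concentrations. 3) Linear interpolation between surrounding doses. 4) Unreached endpoint = highest concentration. Abbreviation: GI50, concentration required for 50% inhibition of growth. The concentration for full growth arrest is given as TGI.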

Assays:
Assay in all cases: growth of human tumour cells (NCI), 48 h
OVCAR-3 ovarian = test system: OVCAR-3 ovarian
SK-MEL-28 melanoma = test system: SK-MEL-28 melanoma
SK-OV-3 ovarian = test system: SK-OV-3 ovarian
A498 renal = test system: A498 renal
SN12C renal = test system: SN12C renal
SK-MEL-5 melanoma = test system: SK-MEL-5 melanoma
EKVX NSCLC = test system: EKVX NSCLC
HOP-92 NSCLC = test system: HOP-92 NSCLC
PC-3 prostate = test system: PC-3 prostate
BT-549 breast = test system: BT-549 breast

Compound | TGI (OVCAR-3 ovarian) | TGI (SK-MEL-28 melanoma) | TGI (SK-OV-3 ovarian) | TGI (A498 renal) | TGI (SN12C renal) | TGI (SK-MEL-5 melanoma) | TGI (EKVX NSCLC) | GI50 (OVCAR-3 ovarian) | GI50 (SK-MEL-28 melanoma) | GI50 (HOP-92 NSCLC) | TGI (HOP-92 NSCLC) | GI50 (SK-OV-3 ovarian) | GI50 (A498 renal) | GI50 (SN12C renal) | GI50 (PC-3 prostate) | TGI (PC-3 prostate) | GI50 (SK-MEL-5 melanoma) | GI50 (EKVX NSCLC) | GI50 (BT-549 breast) | TGI (BT-549 breast)
Cc1ccc(C=NC23CC4CC(CC(C4)C2)C3)cc1 | > 100 µM | > 100 µM | > 100 µM | > 100 µM | > 100 µM | > 100 µM | > 100 µM | – | – | – | – | – | – | – | – | – | – | – | – | –
COC(=O)[C@]12CC[C@@H](C)[C@H](C)[C@@H]1C1=CC[C@@H]3[C@@]4(C)C(C=O)=C[C@@](C)(COS(C)(=O)=O)C4[C@H](O)C[C@@]3(C)[C@]1(C)CC2 (some centres undefined) | 3.33 µM | 5.05 µM | 16.2 µM | 16 µM | 6.39 µM | 3.26 µM | 6.28 µM | 1.7 µM | 2.15 µM | 2.39 µM | 5.56 µM | 4.08 µM | 3.74 µM | 2.28 µM | 1.39 µM | 6.48 µM | 1.7 µM | 2.14 µM | – | –
Cc1ccccc1C(=O)Oc1ccc(OCc2ccccc2)cc1 | > 100 µM | > 100 µM | > 100 µM | > 100 µM | > 100 µM | > 100 µM | > 100 µM | – | – | – | > 100 µM | – | – | – | – | – | – | – | – | –
OCC(O)C(O)C(O)c1nn(-c2ccccc2)c2nc3cc(Cl)c(Cl)cc3nc12 (centres undefined) | > 100 µM | > 100 µM | > 100 µM | – | > 100 µM | – | > 100 µM | – | – | – | – | – | – | – | – | – | – | – | – | –
CC1(C(=O)O)CCOc2ccccc21 (centres undefined) | > 100 µM | > 100 µM | – | > 100 µM | > 100 µM | > 100 µM | > 100 µM | – | – | – | > 100 µM | – | – | – | – | – | – | – | – | –
O=C1C(=O)N(c2nccs2)C(=O)C(=O)C1c1nc2ccccc2s1 | > 100 µM | > 100 µM | > 100 µM | – | > 100 µM | – | > 100 µM | – | – | – | > 100 µM | – | – | – | – | – | – | – | – | –
O=C(Nc1ccc(Br)cc1)C(=O)C(C(=O)c1ccccc1F)C1OC(=O)c2ccccc21 (centres undefined) | > 100 µM | 50.2 µM | > 100 µM | > 100 µM | 85 µM | 87.1 µM | > 100 µM | – | – | – | 65.2 µM | – | – | – | – | – | – | – | – | –
CC(NC(=O)C(=O)N/N=C1\C[C@@H](c2ccccc2)Nc2ccccc21)c1ccccc1 (some centres undefined) | > 100 µM | > 100 µM | – | – | > 100 µM | – | > 100 µM | – | – | – | > 100 µM | – | – | – | – | – | – | – | – | –
COc1nc2c(nc(N)n2C2OCC(O)C(O)C2O)c(=O)n1C (centres undefined) | > 100 µM | > 100 µM | > 100 µM | > 100 µM | > 100 µM | > 100 µM | > 100 µM | – | – | – | > 100 µM | – | – | – | – | – | – | – | – | –
CCOC(=O)C1=C(Nc2ccc(Br)cc2)OC/C1=N\NC(=O)c1ccccc1O | 77.7 µM | > 100 µM | > 67.7 µM | 99.3 µM | > 100 µM | > 100 µM | > 93.9 µM | – | – | – | – | – | – | – | – | – | – | – | – | –
CCOC(=O)c1ccc(N2C(=O)Cc3ccccc3C2=O)cc1 | > 100 µM | > 100 µM | > 100 µM | – | > 100 µM | > 100 µM | > 100 µM | – | – | – | – | – | – | – | – | – | – | – | – | –
Nc1c(C(=O)N/N=C/c2ccc(-c3cc(Cl)c(Cl)cc3Cl)o2)cnn1-c1ccnc2c(C(F)(F)F)cccc12 | > 100 µM | > 100 µM | 73 µM | 37.7 µM | > 100 µM | 14.6 µM | 49.1 µM | 3.1 µM | 4.03 µM | 2.57 µM | 7 µM | 4.81 µM | 3.89 µM | 4.42 µM | 2.09 µM | 6.03 µM | 3.74 µM | 3.09 µM | – | –
N#Cc1nc2c(S(=O)(=O)c3ccccc3)c(N)n(Cc3ccc(Cl)cc3)c2nc1C#N | > 50 µM | > 50 µM | 29.3 µM | – | 17.6 µM | > 50 µM | > 50 µM | 12 µM | 15.3 µM | 12.3 µM | 46.2 µM | 9.9 µM | – | 5.14 µM | 18.3 µM | > 50 µM | 11.5 µM | 19.1 µM | 10.8 µM | 41.7 µM
CC(C)CC12CC3CCC(CNC1=O)C32C (centres undefined) | > 100 µM | > 100 µM | > 100 µM | > 100 µM | > 100 µM | > 100 µM | > 100 µM | – | – | – | > 100 µM | – | – | – | – | – | – | – | – | –
Nc1ccc(C(OC(=O)c2cc3ccccc3c(Cc3c(O)c(C(=O)OC(c4ccc(N)cc4)(c4ccc(N)cc4)c4ccc(N)cc4)cc4ccccc34)c2O)(c2ccc(N)cc2)c2ccc(N)cc2)cc1 | 3.76 µM | 16.4 µM | 14.5 µM | 5.25 µM | 59.1 µM | 2.3 µM | > 100 µM | 1.25 µM | 3.49 µM | 1.15 µM | 5.86 µM | 2.87 µM | 0.548 µM | 0.321 µM | 1.22 µM | 20.4 µM | 0.455 µM | 2.37 µM | – | –
CC(=O)/C=C1\CC(=O)Nc2ccccc2N1 | – | > 100 µM | > 100 µM | > 100 µM | > 100 µM | > 100 µM | > 100 µM | – | – | – | > 100 µM | – | – | – | – | – | – | – | – | –
O=C(N/C(=C\c1ccc(/C=C(\NC(=O)c2ccccc2)c2nc3ccccc3s2)cc1)c1nc2ccccc2s1)c1ccccc1 | 12.1 µM | 24.2 µM | – | 32.5 µM | 12.6 µM | 17.8 µM | 14.5 µM | – | – | – | 25.6 µM | – | – | – | – | – | – | – | – | –
O=C(CCSc1ccnc2c(C(F)(F)F)cccc12)N/N=C/c1cc(Cl)c(Cl)cc1Cl | 44.5 µM | 32.5 µM | 54.7 µM | – | 34.1 µM | 34.9 µM | > 100 µM | 20 µM | 17 µM | 16.3 µM | 34.3 µM | 23.7 µM | – | 18 µM | 18 µM | 36.7 µM | 19.3 µM | 38.1 µM | 18 µM | 38.9 µM
CCc1ccc2nccc(NCCCN(C)C)c2c1[N+](=O)[O-] | > 100 µM | > 100 µM | > 100 µM | > 100 µM | > 100 µM | > 100 µM | > 100 µM | – | – | – | > 100 µM | – | – | – | – | > 100 µM | – | – | – | –
CC(C)C(=O)[O-].CC(C)C(=O)[O-].N.N.N.N.[Co+3].[O-][Cl+3]([O-])([O-])[O-] | > 100 µM | > 100 µM | > 100 µM | > 100 µM | > 100 µM | > 100 µM | > 100 µM | > 100 µM | > 100 µM | > 100 µM | > 100 µM | > 100 µM | > 100 µM | > 100 µM | – | – | > 100 µM | > 100 µM | – | –
